Data: ChEMBL document CHEMBL1212723, “Bioactivity-guided mapping and navigation of chemical space” (Nat Chem Biol, 2009)
Active and inactive are the calls of the source. The rule behind the calls is not given here.

Assays:
Estrogen receptor [1] = molecular target: T1, Estrogen receptor (Homo sapiens, UniProt P03372)
T1 sequence (P03372 whole entry): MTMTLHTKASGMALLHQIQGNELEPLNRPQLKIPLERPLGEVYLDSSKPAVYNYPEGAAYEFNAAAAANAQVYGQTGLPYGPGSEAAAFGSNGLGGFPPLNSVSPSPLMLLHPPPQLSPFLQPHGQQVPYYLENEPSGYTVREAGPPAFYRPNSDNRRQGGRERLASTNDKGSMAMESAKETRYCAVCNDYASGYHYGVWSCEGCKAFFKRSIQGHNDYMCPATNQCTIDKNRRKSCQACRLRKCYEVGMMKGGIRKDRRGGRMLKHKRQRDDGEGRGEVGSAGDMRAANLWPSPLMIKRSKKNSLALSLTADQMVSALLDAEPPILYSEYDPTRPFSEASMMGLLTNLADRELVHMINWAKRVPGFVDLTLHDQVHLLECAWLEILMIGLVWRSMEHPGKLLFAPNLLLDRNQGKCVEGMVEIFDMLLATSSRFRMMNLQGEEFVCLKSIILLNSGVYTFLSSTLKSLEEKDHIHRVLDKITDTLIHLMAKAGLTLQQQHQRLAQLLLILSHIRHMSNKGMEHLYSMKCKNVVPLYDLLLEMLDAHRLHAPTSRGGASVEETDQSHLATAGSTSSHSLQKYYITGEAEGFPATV

Estrogen receptor beta [2] = molecular target: T2, Estrogen receptor beta (Homo sapiens, UniProt Q92731); assay: Agonist activity at human ERbeta ligand binding domain expressed in Escherichia coli BL21(DE3) cells assessed as induction of coactivator 53-protein binding by fluorescence assay
Estrogen receptor [3] = molecular target: T1, Estrogen receptor; assay: biochemical
Description: Binding affinity to human ERalpha ligand binding domain expressed in Escherichia coli BL21(DE3) cells assessed as recruitment of fluorescently labeled nuclear coactivator Scr1 after 1 hr by fluorescence polarization assay

Estrogen receptor beta [4] = molecular target: T2, Estrogen receptor beta; assay: Binding affinity to human ERbeta ligand binding domain expressed in Escherichia coli BL21(DE3) cells assessed as recruitment of fluorescently labeled nuclear coactivator Scr1 after 1 hr by fluorescence polarization assay
Estrogen receptor beta [5] = molecular target: T2, Estrogen receptor beta; assay: Antagonist activity at human ERbeta ligand binding domain expressed in Escherichia coli BL21(DE3) cells assessed as inhibition of coactivator 53-protein binding by fluorescence assay
[6] = molecular target: T3, Polyunsaturated fatty acid 5-lipoxygenase (Homo sapiens, UniProt P09917); assay: Inhibition of LOX5 in human whole blood assessed as inhibition of conversion of arachidonic acid to leukotriene; type: tissue-based
T3 sequence (P09917 whole entry): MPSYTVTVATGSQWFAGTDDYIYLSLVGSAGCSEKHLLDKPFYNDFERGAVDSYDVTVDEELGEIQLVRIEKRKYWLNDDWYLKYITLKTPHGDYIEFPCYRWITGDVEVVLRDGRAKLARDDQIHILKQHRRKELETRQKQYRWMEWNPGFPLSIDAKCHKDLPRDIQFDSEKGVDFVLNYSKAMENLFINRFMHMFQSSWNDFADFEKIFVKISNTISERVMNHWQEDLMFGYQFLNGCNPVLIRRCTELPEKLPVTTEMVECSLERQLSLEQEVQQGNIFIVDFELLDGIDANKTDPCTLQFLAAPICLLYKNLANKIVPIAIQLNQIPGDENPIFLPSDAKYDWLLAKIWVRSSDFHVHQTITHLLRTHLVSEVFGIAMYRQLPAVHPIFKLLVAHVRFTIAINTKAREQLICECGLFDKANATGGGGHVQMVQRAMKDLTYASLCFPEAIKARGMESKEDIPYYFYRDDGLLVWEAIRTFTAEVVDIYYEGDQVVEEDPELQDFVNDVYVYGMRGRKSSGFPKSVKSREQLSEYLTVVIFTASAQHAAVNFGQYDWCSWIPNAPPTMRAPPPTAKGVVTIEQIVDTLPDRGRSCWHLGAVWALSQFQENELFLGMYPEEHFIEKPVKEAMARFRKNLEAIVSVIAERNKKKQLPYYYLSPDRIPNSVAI

T2 sequence (Q92731 whole entry, the tested form may be a part): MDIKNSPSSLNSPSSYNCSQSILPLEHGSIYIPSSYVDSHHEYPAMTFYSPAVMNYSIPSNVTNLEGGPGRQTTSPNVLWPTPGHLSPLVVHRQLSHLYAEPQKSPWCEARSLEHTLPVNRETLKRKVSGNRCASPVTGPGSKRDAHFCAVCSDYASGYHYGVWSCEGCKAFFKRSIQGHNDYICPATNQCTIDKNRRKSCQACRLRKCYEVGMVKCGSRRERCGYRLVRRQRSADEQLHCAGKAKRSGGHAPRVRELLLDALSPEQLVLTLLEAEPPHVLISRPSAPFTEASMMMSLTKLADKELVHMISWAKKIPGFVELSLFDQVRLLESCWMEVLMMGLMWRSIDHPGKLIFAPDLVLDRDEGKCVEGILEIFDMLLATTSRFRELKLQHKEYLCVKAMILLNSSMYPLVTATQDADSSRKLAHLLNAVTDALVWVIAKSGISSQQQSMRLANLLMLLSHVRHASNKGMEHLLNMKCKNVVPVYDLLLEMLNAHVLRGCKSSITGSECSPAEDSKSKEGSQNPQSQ

Compound | inhibition (Estrogen receptor beta [5]) | IC50 [6] [µM] | also measured
O=C(N1CCc2cc(O)ccc2C1)C(F)(F)F | – | – | Ki (Estrogen receptor [1]): 0.002 µM; Activity (Estrogen receptor beta [2]): Active; EC50 (Estrogen receptor [3]): 0.275 µM; EC50 (Estrogen receptor beta [4]): 4.6 µM
c1ccc(COc2ccc3ccccc3c2)cc1 | – | 9.5 | –
CN(C)CCNC(=O)c1ccc(COc2ccc3ccccc3c2)cc1 | – | 3 | –
O=C(N1CCc2cc(O)ccc2[C@H]1c1ccc(OCCN2CCCC2)cc1)C(F)(F)F | Active | – | –

Continued, in another order:

inhibition (Estrogen receptor beta [5]) | IC50 [6] [µM] | Compound | also measured
Active | – | O=S(=O)(c1ccc2ccccc2c1)N1CCc2cc(O)ccc2[C@H]1c1ccc(OCCN2CCCC2)cc1 | –
Active | – | O=S(=O)(c1ccccc1)N1CCc2cc(O)ccc2[C@H]1c1ccc(OCCN2CCCC2)cc1 | –
